Columns and labels:
LPL (lipoprotein lipase) = target: T1, LPL (lipoprotein lipase) (Mus musculus, UniProt P11152); experiment: Confirmation test of LPL activation effect in mouse skeletal muscle cells (C2C12 cells); assay type: cell-based; settings: 8 hours exposure, vs control group
T1 construct: endogenous in cells; host or cells: C2C12 cells, differentiated
T1 sequence (P11152 28-474): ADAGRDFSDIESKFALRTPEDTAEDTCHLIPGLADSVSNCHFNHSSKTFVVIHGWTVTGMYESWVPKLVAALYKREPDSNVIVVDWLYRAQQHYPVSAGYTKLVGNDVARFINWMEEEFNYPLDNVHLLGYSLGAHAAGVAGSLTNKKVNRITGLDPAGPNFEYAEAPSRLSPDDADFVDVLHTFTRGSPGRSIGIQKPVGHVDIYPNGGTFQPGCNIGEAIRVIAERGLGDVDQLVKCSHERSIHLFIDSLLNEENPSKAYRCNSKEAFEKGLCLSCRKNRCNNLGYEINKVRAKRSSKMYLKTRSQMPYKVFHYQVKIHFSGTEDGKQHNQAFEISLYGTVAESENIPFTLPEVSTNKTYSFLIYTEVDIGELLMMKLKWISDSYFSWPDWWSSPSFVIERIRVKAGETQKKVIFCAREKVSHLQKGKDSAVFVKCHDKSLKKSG
Protocol: Human skeletal muscle cells (human skeletal muscle myoblasts) or mouse skeletal muscle cells (C2C12 cells) that were seeded onto plates, cultured, and differentiated were exposed to a 0.3% dimethyl sulfoxide-containing culture medium in which the compound of the present invention was dissolved (concentration: 10 μM or 30 μM). The medium was removed 8 hours after exposure, 10 mM of Tris-HCl buffer (150 mM NaCl, 10 μ/mL; containing heparin sodium) was added to the cells, and the cells were incubated at 37° C. in the presence of 5% CO2 for 10 minutes. LPL activity in the supernatant was measured using an LPL activity assay kit (made by Roar Biomedical Inc.). LPL activity was evaluated based on the increase in fluorescence intensity 10 to 70 minutes after mixing the supernatant with the LPL substrate. The mean value of the increase in fluorescence intensity of the cells exposed to a 0.3% dimethyl sulfoxide-containing culture medium […] was used as mean value of the control group. Note that the compounds of Examples 18, 19, 32, 45 and 57 were tested using human skeletal muscle cells, and other compounds were tested using mouse skeletal muscle cells. The rate of increase (%) was calculated from the measured values of LPL activity in the control group and the experimental group, according to the following formula. Rate of increase in LPL activity (%)=[(mean value of the experimental group)−(mean value of the control group)]/(mean value of the control group)×100

Row | Rate of increase in LPL activity (LPL (lipoprotein lipase); amount of addition 10 μM) [%] | Rate of increase in LPL activity (LPL (lipoprotein lipase); amount of addition 30 μM) [%] | melting point [°C] | Compound
1 | 9 | 15 | > 250 | COc1cc(OCc2ccc(Br)cc2F)ccc1-c1c[nH]c(-c2ccc(C(=O)O)cc2)n1.Cl [Example 94]
2 | 31 | 45 | 228 to 229 | COc1cc(-c2c[nH]c(-c3ccc(Cl)cc3)n2)ccc1OCc1ccccc1 [Example 4]
3 | 38 | 120 | 226 to 227 | COc1cc(-c2c[nH]c(-c3ccc(F)c(F)c3)n2)ccc1OCc1ccccc1.Cl [Example 47]
4 | 30 | 53 | 138 to 141 | COc1cc(-c2c[nH]c(-c3ccc(C(C)(C)C)cc3)n2)ccc1OCc1ccccc1 [Example 28]
5 | 74 | 365 | 170 to 173 | COc1ccc(-c2nc(-c3ccc(OCc4ccc(Cl)cc4)cc3OC)c[nH]2)cc1 [Example 104]
6 | 27 | 96 | 173 to 176 | COc1cc(OCc2ccc(C#N)cc2)ccc1-c1c[nH]c(-c2ccc(F)c(F)c2)n1 [Example 96]
7 | 62 | 88 | 154 to 157 | COc1cc(OCc2ccc(Cl)cc2)ccc1-c1c[nH]c(-c2ccc(C(C)(C)C)cc2)n1 [Example 115]
8 | 21 | 302 | 191 to 195 | COc1cc(OCc2ccc(Br)cc2F)ccc1-c1c[nH]c(-c2ccc(Cl)cc2)n1 [Example 80]
9 | 37 | 106 | 145 to 148 | COc1cc(OCc2ccc(Cl)cc2)ccc1-c1c[nH]c(-c2ccc(Cl)c(Cl)c2)n1 [Example 110]
10 | 24 | 46 | 183 to 186 | COc1cc(OCc2ccc(C#N)cc2)ccc1-c1c[nH]c(-c2ccsc2)n1 [Example 65]
11 | 46 | 234 | 231 to 232 | COc1cc(OCc2ccccc2)ccc1-c1c[nH]c(-c2ccc(C(F)(F)F)cc2)n1 [Example 13]
12 | 60 | 84 | 142 to 145 | COc1cc(-c2c[nH]c(-c3cc(Cl)cc(Cl)c3)n2)ccc1OCc1ccc(Cl)cc1 [Example 33]
13 | 64 | 157 | 174 to 176 | COc1cc(OCc2ccc(Cl)cc2)ccc1-c1c[nH]c(-c2ccc(F)cc2)n1 [Example 43]
14 | 18 | 130 | 177 to 180 | COc1cc(OCc2ccc(Br)cc2F)ccc1-c1c[nH]c(-c2ccc(C(C)(C)C)cc2)n1 [Example 90]
15 | 49 | 208 | 154 to 165 | COc1ccc(-c2nc(-c3ccc(OCc4ccccc4)cc3OC)c[nH]2)cc1.Cl [Example 128]
16 | 32 | 308 | 245 to 249 | COc1cccc(-c2nc(-c3ccc(OCc4ccc(Cl)cc4F)cc3OC)c[nH]2)c1.Cl [Example 134]
17 | 67 | 174 | 231 to 236 | COc1cc(OCc2ccc(Cl)cc2)ccc1-c1c[nH]c(-c2cccc(C(F)(F)F)c2)n1.Cl [Example 119]

Row | Rate of increase in LPL activity (LPL (lipoprotein lipase); amount of addition 10 μM) [%] | Rate of increase in LPL activity (LPL (lipoprotein lipase); amount of addition 30 μM) [%] | melting point [°C] | Compound
18 | 49 | 88 | 212 to 215 | COc1cc(-c2c[nH]c(-c3cccc(F)c3)n2)ccc1OCc1ccccc1.Cl [Example 46]
19 | 44 | 88 | 260 to 262 | COc1cc(OCc2ccc(Br)cc2F)ccc1-c1c[nH]c(-c2ccc(Cl)c(Cl)c2)n1 [Example 102]
20 | 16 | 64 | 235 to 237 | COc1cc(-c2c[nH]c(-c3cccc(F)c3)n2)ccc1OCc1ccc(Cl)cc1.Cl [Example 79]
21 | 55 | 108 | 236 to 237 | COc1cc(-c2c[nH]c(-c3ccsc3)n2)ccc1OCc1ccccc1C#N.Cl [Example 73]
22 | 35 | 213 | 165 to 166 | COc1cc(OCc2ccc(Cl)cc2F)ccc1-c1c[nH]c(-c2ccc(C(F)(F)F)cc2)n1 [Example 132]
23 | 30 | 92 | 237 to 243 | COc1cc(OCc2ccc(Br)cc2F)ccc1-c1c[nH]c(-c2ccc(F)c(Cl)c2)n1 [Example 103]
24 | 18 | 96 | 243 to 245 | COc1cc(-c2c[nH]c(-c3ccc(F)cc3)n2)ccc1OCc1ccc(Cl)cc1.Cl [Example 48]
25 | 52 | 142 | 251 to 252 | COc1cc(-c2c[nH]c(-c3ccsc3)n2)ccc1OCc1ccc(Br)cc1F.Cl [Example 69]
26 | 81 | 143 | 182 to 184 | COc1cc(OCc2ccc(C#N)cc2)ccc1-c1c[nH]c(-c2ccc(C(F)(F)F)cc2)n1 [Example 17]
27 | 24 | 32 | 176 to 180 | COc1cc(-c2c[nH]c(-c3ccsc3)n2)ccc1OCc1ccc(C#N)cc1 [Example 66]
28 | 47 | 131 | 217 to 220 | COc1cc(OCc2ccccc2)ccc1-c1c[nH]c(-c2ccc(F)cc2)n1.Cl [Example 42]
29 | 10 | 99 | 195 to 198 | COc1cc(OCc2ccc(C#N)cc2)ccc1-c1c[nH]c(-c2ccc(C)cc2)n1 [Example 85]
30 | 4 | 123 | 223 to 226 | COc1cc(OCc2ccc(Cl)cc2)ccc1-c1c[nH]c(-c2cccc(Cl)c2)n1.Cl [Example 113]
31 | 16 | 115 | 173 to 174 | COc1cc(-c2c[nH]c(-c3cccc(C(F)(F)F)c3)n2)ccc1OCc1ccc(Br)cc1F [Example 51]
32 | 79 | 97 | 250 to 251 | COc1cc(-c2c[nH]c(-c3cc(Cl)cc(Cl)c3)n2)ccc1OCc1ccccc1 [Example 15]
33 | 10 | 289 | 247 to 249 | COc1cc(OCc2ccc(Br)cc2F)ccc1-c1c[nH]c(-c2ccsc2)n1.Cl [Example 68]
34 | 49 | 94 | 231 to 233 | COc1cc(-c2c[nH]c(-c3ccc(C(F)(F)F)cc3)n2)ccc1OCc1ccc(C#N)cc1 [Example 55]
